Square brackets hold non-standard residues; d marks the D form. Peptide text beside a SMILES is read from it. * marks the point of attachment. Bpa = N[C@@H](Cc1ccc(C(=O)c2ccccc2)cc1)C(=O)O; Phe(4-Cl) = N[C@@H](Cc1ccc(Cl)cc1)C(=O)O; hArg = N=C(N)NCCCC[C@H](N)C(=O)O; Nle = CCCC[C@H](N)C(=O)O; Abu = CC[C@H](N)C(=O)O; PhAc = O=C(Cc1ccccc1)*
Tested on: hGH-RH(1-29)NH2 induced GH release
Assay: Inhibition of GH release in superfused rat pituitary system
Format: cell-based
Protocol: The analogs were tested in vitro in a test described earlier (S. Vigh and A. V Schally, Peptides 5:241-[…], 1984) with modification (Z. Rekasi and A. V. Schally, P.N.A.S. 90:2146-2149, 1993).
Briefly, the cells are preincubated with peptides for 9 minutes (3 mL) at various concentrations. Immediately after the incubation, 1 nM hGH-RH(1-29)NH2 is administered for 3 minutes (1 mL) 10 minute response). To check the duration of the antagonistic effect of the analogue, 1 nM hGH-RH(1-29)NH2 is applied 30, 60, 90, and 120 minutes later for 3 minutes [30, 60, 90, 120 min responses]. Net integral values of the GH responses are evaluated. GH responses are compared to and expressed as percent of the original GH response induced by 1 nM GH-RH(1-29)NH2 The effect of the new antagonists are compared to that of [Ac-Tyr^1, D-Arg^2]hGH-RH(1-29)NH2, the “Standard antagonist”.
Rat GH levels in aliquots of undiluted and diluted superfusion samples were measured by double-antibody radioimmunoassay using materials supplied by the National Hormone and Pituitary Program, Baltimore, Md. The results of RIA were analyzed with a computer program developed in our institute (V. Csernus and A. V. Schally, in Neuroendocrine Research Methods, Harwood Academic (Greenstein, B. D. ed., London, pp. 71-109, 1991), hereby incorporated by reference.

[1] = antagonist 30 nM, 1 nM hGH-RH(1-29)NH2 at 0 min
[2] = antagonist 30 nM, 1 nM hGH-RH(1-29)NH2 at 30 min
[3] = antagonist 30 nM, 1 nM hGH-RH(1-29)NH2 at 60 min
[4] = antagonist 30 nM, 1 nM hGH-RH(1-29)NH2 at 90 min
[5] = antagonist 30 nM, 1 nM hGH-RH(1-29)NH2 at 120 min

CCCC[C@H](NC(=O)[C@@H](NC(=O)[C@H](CC(=O)O)NC(=O)[C@H](CCC(N)=O)NC(=O)[C@H](CC(C)C)NC(=O)[C@H](CC(C)C)NC(=O)[C@H](CCCCN)NC(=O)[C@H](CCCNC(=N)N)NC(=O)[C@H](C)NC(=O)[C@H](CO)NC(=O)[C@H](CC(C)C)NC(=O)[C@H](CCC(N)=O)NC(=O)[C@H](CC)NC(=O)[C@H](CC(C)C)NC(=O)[C@@H](NC(=O)[C@H](CCCCN)NC(=O)[C@H](CCCNC(=N)N)NC(=O)[C@H](Cc1ccc(O)cc1)NC(=O)[C@H](CCCNC(=N)N)NC(=O)[C@H](CC(N)=O)NC(=O)[C@@H](NC(=O)[C@H](Cc1ccc(Cl)cc1)NC(=O)[C@@H](NC(=O)[C@H](C)NC(=O)[C@H](CC(=O)O)NC(=O)[C@@H](CCCNC(=N)N)NC(=O)[C@H](Cc1ccc(O)cc1)NC(=O)Cc1ccccc1)[C@@H](C)CC)[C@@H](C)O)C(C)C)[C@@H](C)CC)C(=O)N[C@H](CCCNC(=N)N)C(=O)N[C@@H](CCCCNC(=N)N)C(N)=O [JV-1-36, reference compound] (PhAc-Y[dR]DAI[Phe(4-Cl)]TNRYRKVL[Abu]QLSARKLLQDI[Nle][dR][hArg]-NH2; N-terminus and C-terminus assumed)
GH response (% of control) 0 min (antagonist 10 nM, 0 min): 80 % of control
GH response (% of control) 30 min (antagonist 10 nM, 30 min): 42 % of control
GH response (% of control) 60 min (antagonist 10 nM, 60 min): 60 % of control
GH response (% of control) 90 min (antagonist 10 nM, 90 min): 64 % of control
GH response (% of control) 120 min (antagonist 10 nM, 120 min): 85 % of control
GH response (% of control) 0 min [1]: 36 % of control
GH response (% of control) 30 min [2]: 21 % of control
GH response (% of control) 60 min [3]: 25 % of control
GH response (% of control) 90 min [4]: 29 % of control
GH response (% of control) 120 min [5]: 29 % of control

CCCC[C@H](NC(=O)[C@@H](NC(=O)[C@H](CC(=O)O)NC(=O)[C@H](CCC(N)=O)NC(=O)[C@H](CC(C)C)NC(=O)[C@H](CC(C)C)NC(=O)[C@H](CCCCN)NC(=O)[C@H](CCCNC(=N)N)NC(=O)[C@H](C)NC(=O)[C@H](CO)NC(=O)[C@H](CC(C)C)NC(=O)[C@H](CCC(N)=O)NC(=O)[C@H](CC)NC(=O)[C@H](CC(C)C)NC(=O)[C@@H](NC(=O)[C@H](CCCCN)NC(=O)[C@H](CCCNC(=N)N)NC(=O)[C@H](Cc1ccc(C(=O)c2ccccc2)cc1)NC(=O)[C@H](CCCCNC(=N)N)NC(=O)[C@H](CC(N)=O)NC(=O)[C@@H](NC(=O)[C@H](Cc1ccc(O)cc1)NC(=O)[C@@H](NC(=O)[C@H](C)NC(=O)[C@H](CC(=O)O)NC(=O)[C@@H](CCCNC(=N)N)NC(=O)[C@H](Cc1c[nH]cn1)NC(=O)Cc1ccccc1)[C@@H](C)CC)[C@@H](C)O)C(C)C)[C@@H](C)CC)C(=O)N[C@H](CCCNC(=N)N)C(=O)N[C@@H](CCCCNC(=N)N)C(N)=O [Peptide 42, [PhAc-His^1, D-Arg^2, Tyr^6, Har^9, Bpa^10, Abu^15, Nle^27, D-Arg^28, Har^29]hGH-RH(1-29)NH2] (PhAc-H[dR]DAIYTN[hArg][Bpa]RKVL[Abu]QLSARKLLQDI[Nle][dR][hArg]-NH2)
GH response (% of control) 0 min [1]: 52 % of control
GH response (% of control) 30 min [2]: 7 % of control
GH response (% of control) 60 min [3]: 9 % of control
GH response (% of control) 90 min [4]: 8 % of control
GH response (% of control) 120 min [5]: 13 % of control
endocrine antagonistic potency: inhibition of the GH release stimulated by hGH-RH(1-29)NH2 (in words) (general statement, in vitro and in vivo): high endocrine antagonistic potencies

CCCC[C@H](NC(=O)[C@@H](NC(=O)[C@H](CC(=O)O)NC(=O)[C@H](CCC(N)=O)NC(=O)[C@H](CC(C)C)NC(=O)[C@H](CC(C)C)NC(=O)[C@H](CCCCN)NC(=O)[C@H](CCCNC(=N)N)NC(=O)[C@H](C)NC(=O)[C@H](CO)NC(=O)[C@H](CC(C)C)NC(=O)[C@H](CCC(N)=O)NC(=O)[C@H](CC)NC(=O)[C@H](CC(C)C)NC(=O)[C@@H](NC(=O)[C@H](CCCCNC(=N)N)NC(=O)[C@H](CCCNC(=N)N)NC(=O)[C@H](Cc1ccc(O)cc1)NC(=O)[C@H](CCCNC(=N)N)NC(=O)[C@H](CC(N)=O)NC(=O)[C@@H](NC(=O)[C@H](Cc1ccc(Cl)cc1)NC(=O)[C@@H](NC(=O)[C@H](C)NC(=O)[C@H](CC(=O)O)NC(=O)[C@@H](CCCNC(=N)N)NC(=O)[C@H](Cc1ccc(O)cc1)NC(=O)Cc1ccccc1)[C@@H](C)CC)[C@@H](C)O)C(C)C)[C@@H](C)CC)C(=O)N[C@H](CCCNC(=N)N)C(=O)N[C@@H](CCCCNC(=N)N)C(N)=O [Peptide 43, [PhAc-Tyr^1, D-Arg^2, Phe(pC)^6, Arg^9, Har^12, Abu^15, Nle^27, D-Arg^28, Har^29]hGH-RH(1-29)NH2] (PhAc-Y[dR]DAI[Phe(4-Cl)]TNRYR[hArg]VL[Abu]QLSARKLLQDI[Nle][dR][hArg]-NH2)
GH response (% of control) 0 min [1]: 82 % of control
GH response (% of control) 30 min [2]: 74 % of control
GH response (% of control) 60 min [3]: 102 % of control
GH response (% of control) 90 min [4]: 72 % of control
GH response (% of control) 120 min [5]: 51 % of control

[CH3(CH2)4CO-Tyr^1, D-Arg^2, Phe(pCl)^6, Arg^9, Abu^15, Nle^27, D-Arg^28, Har^29]hGH-RH(1-29)NH2 [Peptide 2]
GH response (% of control) 0 min [1]: 18 % of control
GH response (% of control) 30 min [2]: 13 % of control
GH response (% of control) 60 min [3]: 18 % of control
GH response (% of control) 90 min [4]: 25 % of control
GH response (% of control) 120 min [5]: 51 % of control

[CH3(CH2)10CO-Tyr^1, D-Arg^2, Phe(pCl)^6, Arg^9, Abu^15, Nle^27, D-Arg^28, Har^29]hGH-RH(1-29)NH2 [Peptide 8]
GH response (% of control) 0 min [1]: 37 % of control
GH response (% of control) 30 min [2]: 31 % of control
GH response (% of control) 60 min [3]: 48 % of control
GH response (% of control) 90 min [4]: 44 % of control
GH response (% of control) 120 min [5]: 40 % of control

[CH3(CH2)12CO-Tyr^1, D-Arg^2, Phe(pCl)^6, Arg^9, Abu^15, Nle^27, D-Arg^28, Har^29]hGH-RH(1-29)NH2 [Peptide 10]
GH response (% of control) 0 min [1]: 60 % of control
GH response (% of control) 30 min [2]: 30 % of control
GH response (% of control) 60 min [3]: 36 % of control
GH response (% of control) 90 min [4]: 37 % of control
GH response (% of control) 120 min [5]: 44 % of control

[CH3(CH2)14CO-Phe^0, D-Arg^2, Phe(pCl)^6, Arg^9, Abu^15, Nle^27, D-Arg^28, Har^29]hGH-RH(1-29)NH2 [Peptide 16]
GH response (% of control) 0 min [1]: 40 % of control
GH response (% of control) 30 min [2]: 62 % of control
GH response (% of control) 60 min [3]: 78 % of control
GH response (% of control) 90 min [4]: 73 % of control
GH response (% of control) 120 min [5]: 61 % of control

[CH3(CH2)14CO-Tyr^1, D-Arg^2, Phe(pCl)^6, Arg^9, Abu^15, Nle^27, D-Arg^28, Har^29]hGH-RH(1-29)NH2 [Peptide 12]
GH response (% of control) 0 min [1]: 35 % of control
GH response (% of control) 30 min [2]: 30 % of control
GH response (% of control) 60 min [3]: 35 % of control
GH response (% of control) 90 min [4]: 51 % of control
GH response (% of control) 120 min [5]: 43 % of control

[CH3(CH2)14COD-Phe^0, D-Arg^2, Phe(pCl)^6, Arg^9, Abu^15, Nle^27, D-Arg^28, Har^29]hGH-RH(1-29)NH2 [Peptide 17]
GH response (% of control) 0 min [1]: 29 % of control
GH response (% of control) 30 min [2]: 51 % of control
GH response (% of control) 60 min [3]: 68 % of control
GH response (% of control) 90 min [4]: 73 % of control
GH response (% of control) 120 min [5]: 61 % of control

[HOOC(CH2)4CO-Tyr^1, D-Arg^2, Phe(pCl)^6, Arg^9, Abu^15, Nle^27, D-Arg^28, Har^29]hGH-RH(1-29)NH2 [Peptide 3]
GH response (% of control) 0 min [1]: 52 % of control
GH response (% of control) 30 min [2]: 61 % of control
GH response (% of control) 60 min [3]: 56 % of control
GH response (% of control) 90 min [4]: 70 % of control
GH response (% of control) 120 min [5]: 149 % of control

[HOOC(CH2)10CO-Tyr^1, D-Arg^2, Phe(pCl)^6, Arg^9, Abu^15, Nle^27, D-Arg^28, Har^29]hGH-RH(1-29)NH2 [Peptide 9]
GH response (% of control) 0 min [1]: 47 % of control
GH response (% of control) 30 min [2]: 43 % of control
GH response (% of control) 60 min [3]: 66 % of control
GH response (% of control) 90 min [4]: 63 % of control
GH response (% of control) 120 min [5]: 58 % of control

From patent US7452865B2, “Antagonistic analogs of GH RH (2003)” (The Administrare's of the Tulane Educational Fund, priority 2004, dated 2008)
